No end group written: not given here.
Tests used:
[1] = stated without test; cited from earlier work
[2] = tested on: model for FAS, C57B 1/6J mouse strain; test: Fetal demise at E18 in mouse model for FAS (alcohol on E8, peptide pretreatment); type: in vivo; details: for percentage of fetal demises: E18, pretreatment 30 min prior to alcohol (25% ethyl alcohol i.p., 0.030 ml/g) on E8, NAPVSIPQ 20 μg, SALLRSIPA 20 μg, VIP 1 μg, combination 20 μg+20 μg; for alcohol toxicity as measured by fetal demises and weight (summary): summary of fetal demises and weights (fetal and fetal brain) at E18
Experimental: (§1) C57-B16J female mice (Jackson Labs) were kept under a 12 h light, 12 h dark regimen with food and water available at all times. The mice received humane animal care in compliance with the “Guideline for Care and Use of Experimental Animals.” Six week old females (21-24 grams) were mated with C57-B 16J males for 4 h. The presence of a vaginal plug was considered day 0 pregnancy.
(§2) A published well-delineated model for FAS was followed (Webster, W. S., et al., Neurobehav Tox, 2:227-34 (1980)). Animals were injected (intraperitoneal) on E8 with […] in saline (v/v) or vehicle alone at 0.030 ml/g body weight. Pretreatment with VIP and ADNF peptides (NAPVSIPQ (SEQ ID NO:2), SALLRSIPA (SEQ ID NO:1), NAPVSIPQ (SEQ ID NO:2)+SALLRSIPA (SEQ ID NO:1)) were given 30 min prior to alcohol. Dosages of the neuropeptides were NAPVSIPQ (SEQ ID NO:2) (20 μg) and (40 μg), SALLRSIPA (SEQ ID NO:1) (20 μg), NAPVSIPQ (SEQ ID NO:2) (20 μg)+(20 μg); VIP (1 μg). A NAPVSIPQ (SEQ ID NO:2)+SALLRSIPA (SEQ ID NO:1) control group without alcohol was studied. NAPVSIPQ (SEQ ID NO:2) was diluted in 50 μl DMSO and diluted in filtered Dulbecco's phosphate buffered saline (DPBS). SAL was dissolved and diluted in filtered DPBS. VIP was dissolved in […] glacial acetic acid and diluted in HPLC water and DPBS. Since the animals receiving alcohol were incapacitated for approximately 6 h following injection, food and water were withheld from all groups for the initial 6 hours after injection, to allow accurate assessment of fetal weights.
(§3) At E18 (embryonic gestation day 18), the number of live and demised fetuses was determined. Fetal weights and fetal brain weights were obtained for each fetus in the litter. The mean fetal weights were determined for each mother and this was used for statistical analysis.
(§4) The mean litter pup and fetal brain weight was calculated, with the litter mean used for all statistical analysis. Percent demises were calculated by dividing the number of demises by the total number of fetuses (live plus demises). Statistical analysis included ANOVA for continuous variables, Mann-Whitney U for nonparametic data, Chi square for categorical variables or Fisher's exact test where appropriate [Statview 4.5 (Abacus Concepts, Inc., Berkeley, Calif.)] with p<0.05 considered significant. Results are presented as mean±standard error unless specified.
(§5) The C57B 1/6J mouse strain provided a well-characterized model for FAS. Previous work with this strain has defined the effects of dosage and embryonic timing on maternal serum alcohol levels and embryonic effects (Webster et al., Neurobehav Tox, 2:227-34 (1980)), incorporated herein by reference. Intra-peritoneal treatment allowed for defined and reproducible dosages. […] The mice were injected with 25% ethyl alcohol in saline (v/v) or vehicle alone at 0.030 ml/g maternal body weight at 0900 on E8. Pretreatment with the study peptides was given 30 minutes prior to alcohol administration. […]
To assess the protective effects of the ADNF peptides in the most severe form of stress, the number of fetal death was determined. […]

[3] = tested on: model for FAS, C57B 1/6J mouse strain; test: Fetal weights and fetal brain weights at E18 in mouse model for FAS; type: in vivo; details: pretreatment 30 min prior to alcohol on E8; for fetal weights (alcohol-induced growth restriction): NAPVSIPQ 20 μg, VIP 1 μg
Experimental: as §1, §2, §3, §4, §5
In the surviving E18 fetuses, fetal and fetal brain weights were evaluated to assess the protective effects of the ADNF peptides. […]

[4] = surviving E18 fetuses, SALLRSIPA 20 μg, combination 20 μg+20 μg

Substance	crossing of the blood brain barrier [1]	percentage of fetal demises [2]	alcohol toxicity as measured by fetal demises and weight (summary) [2]	alcohol-induced growth restriction ([3]; double dosage of NAPVSIPQ (40 μg), E18)	fetal weights (alcohol-induced growth restriction) [3, 4]	fetal brain weights (alcohol-induced fetal brain weight reduction) [3, 4]
NAPVSIPQ [Asn-Ala-Pro-Val-Ser-Ile-Pro-Gln]	cross the blood brain barrier	prevented the demises seen with alcohol	moderately prevented alcohol toxicity	moderately prevented the alcohol-induced growth restriction	moderately prevented the alcohol-induced growth restrictions	–
SALLRSIPA [Ser-Ala-Leu-Leu-Arg-Ser-Ile-Pro-Ala]	cross the blood brain barrier	unable to bring the fetal demise rate to control levels	moderately prevented alcohol toxicity	–	did not prevent the alcohol-induced fetal weight reduction	moderately prevented the alcohol-induced fetal brain weight reduction
vasoactive intestinal peptide (HSDAVFTDNYTRLRKQMAVKKYLNSILN; ends and bridges not checked; UniProt P01282 125-152, looked up) [VIP, neuropeptide that is a regulator of early postimplantation mouse embryonic growth, reference compound]	–	slightly improved the fetal demise rate	–	–	improved embryonic weights; however, the effect was intermediate	–
